# From patent US20120329761A1, “USE OF TIGECYCLINE FOR TREATMENT OF CANCER” (UNIVERSITY HEALTH NETWORK, priority 2010, published 2012)
# Key:
# primary human AML cells = assay type: in vivo, NOD-SCID mice; details: 100 mg/kg i.p. daily for three weeks, vs vehicle control
# Protocol: FIG. 3. Tigecycline has anti-leukemia activity in vivo. (A, B) Human leukemia (OCI-AML2) were injected subcutaneously into the flank of SCID mice. Seven days after injection, once tumors were palpable, mice were treated with tigecycline (50 mg/kg or 100 mg/kg twice daily by i.p. injection) or vehicle control (n=10 per group). Fourteen days after injection of cells, mice were sacrificed, tumors excised and the volume and mass of the tumors were measured. The tumor mass and the mean volume+SD are shown. Differences in tumor volume and mass were analyzed by an unpaired t-test: * p<0.001. (C) Tumours from two control mice, and three tigecycline-treated mice were excised after 5 days of treatment and total proteins were extracted and analyzed by western blotting for Cox-1, Cox-2, Cox-4, and tubulin. […] Following treatment, human leukemia cell engraftment in the injected right femur was measured by FACS analysis for human CD45^+CD19^−CD33^+ cells. […] Six weeks later, human leukemia cell engraftment in the injected right femur was measured by FACS analysis for human CD45^+CD19^−CD33^+ cells. […]
# To assess tigecycline in mouse models of primary AML, primary human AML cells were isolated form a fresh peripheral blood sample from a patient with AML. A frozen aliquot was thawed, counted and resuspended in PBS. […]
# TEX cells = experiment: Mitochondrial membrane potential, JC-1 dye; assay type: cell-based, human; details: 5 μM, times preceding onset of cell death
# Protocol: (§1) FIG. 4. Tigecycline decreases mitochondrial Cox-1 protein levels in TEX cells. (A) Cells from TEX, OCI-AML2 and two primary AML patients were treated with increasing concentrations (2.5 μM and 5 μM) of tigecycline for 36 and 48 hours of tigecycline. Total proteins were extracted and analyzed by western blotting for Cox-1, Cox-2, Cox-4, grp78, XIAP, actin and tubulin. (B) TEX and AML patient cells were treated with increasing concentrations (2.5 μM and 5 μM) of tigecycline. Cox-1, Cox-2, and Cox-4 mRNA expression relative 18S was determined by quantitative RT-PCR. Data is shown as mean±SD. (C) TEX cells were treated with increasing concentrations of tigecycline and chloramphenicol (CAP) for 72 hours. Complex I, II and IV enzyme activity relative to citrate synthase activity was determined as described in materials and methods. (D) Cells from TEX, primary AML patients, and normal donors were treated with increasing concentrations of tigecycline. Mitochondrial membrane potential (Δψ) was determined by staining cells with JC-1 dye, and flow cytometry analysis (Red/Green ratio). Reactive oxygen species generation (ROS) was determined by staining with h2-DCFDA and Dihydroethidium (DHE).
# (§2) To measure mitochondrial membrane potential, cells were treated with tigecycline similarly as described above and then washed twice with PBS and incubated with 5 μM of 5,5′,6,6′-tetrachloro-1,1′,3,3′-tetraethyl benzimidazolylcarbocyanine iodide (JC-1, Sigma-Aldrich) for 20 minutes at 37° C. Each sample was then washed twice with 1 mL PBS and resuspended in 500 μL PBS prior to being read on a BD FACSCalibur. Samples were excited at 488 nm and emission was collected at 526 nm (green) and 595 nm (red). Analysis was conducted using FlowJo software (TreeStar Inc). […]
# (§3) During oxidative phosphorylation, the intermediate between oxygen reduction and ATP synthesis is the electrochemical proton gradient, comprised mostly of the mitochondrial membrane potential. […] The effect of tigecycline treatment on the mitochondrial membrane potential as determined by the carbocyanine dye JC-1 was examined. […]
# primary AML samples = experiment: Mitochondrial membrane potential, JC-1 dye; assay type: cell-based, human; details: three primary AML samples, 5 μM, times preceding onset of cell death
# Protocol: as §1, §2, §3
# [1] = system: normal hematopoietic cells; experiment: Mitochondrial membrane potential, JC-1 dye; assay type: cell-based, human; details: normal hematopoietic cells from two G-CSF mobilized normal donors
# Protocol: as §1, §2, §3
smiles,measurement,setting,value
CN(C)c1cc(NC(=O)CNC(C)(C)C)c(O)c2c1C[C@H]1C[C@H]3[C@H](N(C)C)C(O)=C(C(N)=O)C(=O)[C@@]3(O)C(O)=C1C2=O [tigecycline],engraftment of human AML cells (CD45+CD33+CD19-) in marrow,primary human AML cells,significantly decreased
same,mitochondrial membrane potential (JC-1 Red/Green ratio),TEX cells,decreased mitochondrial membrane potential
same,mitochondrial membrane potential (JC-1 Red/Green ratio),primary AML samples,decreased mitochondrial membrane potential
same,loss of mitochondrial membrane potential,[1],not seen
